The test system of assay [1] is Saccharomyces cerevisiae. As to the kind of experiment: Antifungal activity against Saccharomyces cerevisiae 1138. The class given is functional.
In assay [2] the test system is Saccharomyces cerevisiae. The experiment in a line: Antifungal activity against Saccharomyces cerevisiae 1140. The class given is functional.
Assay [3] has as its system M109. The experiment in a line: Cytotoxicity against mouse M109 cells. The format is functional, cell-based.
For assay [4], the system named is Saccharomyces cerevisiae. As to the kind of experiment: Antifungal activity against Saccharomyces cerevisiae 1353. The class given is functional.
In assay [5] the test system is Saccharomyces cerevisiae. As to the kind of experiment: Antifungal activity against Saccharomyces cerevisiae Sc7. The class given is functional.
The subject of assay [6] is A2780. As to the kind of experiment: Cytotoxicity against human A2780 cells. The format is functional, cell-based.

One may read the IC50 as the concentration that gives 50% inhibition. Low values mean greater potency in that assay, high ones weaker potency in that assay.

Structures are written as SMILES. ≈ marks a conversion by molar mass, not a printed value.

For the molecule `CC(=O)N[C@H]1[C@H](O[C@H]2CC[C@]3(C)[C@H]4CC=C5[C@@H]6CC(C)(C)CC[C@]6(C(=O)O)CC[C@@]5(C)[C@]4(C)CC[C@H]3C2(C)C)O[C@H](CO[C@@H]2OC[C@H](O)[C@H](O)[C@H]2O[C@@H]2OC[C@H](O)[C@H](O)[C@H]2O)[C@@H](O)[C@@H]1O`, the IC12 in assay [1] turned out to be 25 µg/mL; in assay [2], 40 µg/mL; in assay [4], 30 µg/mL; in assay [5] it was 45 µg/mL. In addition, in assay [3], half-maximal inhibition (IC50) was put at 1 µg/mL (≈ 1.08 µM).

As for `CC(=O)N[C@H]1[C@H](O[C@H]2CC[C@]3(C)[C@H]4CC=C5[C@@H]6CC(C)(C)[C@@H](OC(=O)/C=C/c7ccccc7)C[C@]6(C(=O)O)[C@H](O)C[C@@]5(C)[C@]4(C)CC[C@H]3C2(C)C)O[C@H](CO[C@@H]2OC[C@H](O)[C@H](O)[C@H]2O[C@@H]2OC[C@@H](O)[C@H](O)[C@H]2O)[C@@H](O)[C@@H]1O` [ACACIOSIDE B], the IC12 was found to be 150 µg/mL in assay [1], 220 µg/mL in assay [2], 220 µg/mL in assay [4] and 280 µg/mL in assay [5]. Besides, in assay [6], the IC50 amounted to 13.5 µg/mL (≈ 12.4 µM).

Turning to `CC(=O)N[C@H]1[C@H](O[C@H]2CC[C@]3(C)[C@H]4CC=C5[C@@H]6CC(C)(C)[C@@H](OC(=O)/C=C/c7ccccc7)C[C@]6(C(=O)O)[C@H](O)C[C@@]5(C)[C@]4(C)CC[C@H]3C2(C)C)O[C@H](CO[C@@H]2OC[C@H](O)[C@H](O)[C@H]2O[C@@H]2OC[C@H](O)[C@H](O)[C@H]2O)[C@@H](O)[C@@H]1O` [ACACIOSIDE C], the IC12 in assay [1] came to 160 µg/mL; in assay [2] it was 215 µg/mL; in assay [4] it was 220 µg/mL; in assay [5], 275 µg/mL. In addition, the IC50 in assay [6] came to 13 µg/mL (≈ 12 µM).

For `CC(=O)N[C@H]1[C@H](O[C@H]2CC[C@]3(C)[C@H]4CC=C5[C@@H]6CC(C)(C)CC[C@]6(C(=O)O)CC[C@@]5(C)[C@]4(C)CC[C@H]3C2(C)C)O[C@H](CO[C@@H]2OC[C@H](O)[C@H](O)[C@H]2O[C@@H]2OC[C@@H](O)[C@H](O)[C@H]2O)[C@@H](O)[C@@H]1O` [ALBIZIATRIOSIDE A], the IC12 in assay [1] worked out at 30 µg/mL; in assay [2] it was 35 µg/mL; in assay [4], 35 µg/mL; in assay [5], 30 µg/mL. This molecule registered an IC50 in assay [3] of 1 µg/mL (≈ 1.08 µM).

Values taken from ChEMBL document CHEMBL1159316, “Bioactive saponins from Acacia tenuifolia from the suriname rainforest” (J Nat Prod, 2002).
